Test results reported in article PMC4741889, “Ligand-based chemoinformatic discovery of a novel small molecule inhibitor targeting CDC25 dual specificity phosphatases and displaying in vitro efficacy against melanoma cells” (Oncotarget, 2015).

Key:
CDC25A = target: T1, CDC25A (Homo sapiens, UniProt P30304); test: Ki from OMFP hydrolysis kinetics (Lineweaver-Burk), CDC25A; format: biochemical; settings: 20 nM CDC25A, 1–25 μM OMFP; mean ± S.E.; read-out: Ki CDC25A
T1 construct: Recombinant forms of the catalytic domains of CDC25A, -B and -C were obtained through the vectors pET28a-CDC25A-cd, pET28a-CDC25B-cd and pET28a-CDC25C-cd; made in house
T1 sequence (P30304 376-482 limits assumed): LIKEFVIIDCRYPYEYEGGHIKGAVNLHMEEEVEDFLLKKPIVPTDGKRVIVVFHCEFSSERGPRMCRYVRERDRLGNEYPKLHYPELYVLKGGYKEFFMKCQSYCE
Procedure: To measure the inhibition constant (Ki) of the recombinant forms of CDC25A, -B and -C towards the various inhibitors, the affinity of the different forms of CDC25 towards OMFP was measured either in the absence or in the presence of fixed concentrations of the various inhibitors. The reaction mixture contained 20 nM CDC25A, or 10 nM CDC25B, or 40 nM CDC25C, and different concentrations of the various inhibitors in 500 μL final volume of 20 mM Tris-HCl, pH 7.8, 1 mM DTT. DMSO was used as vehicle control. […] The corresponding Lineweaver-Burk plots allowed the calculation of the KM for OMFP and of the Vmax of OMFP hydrolysis, expressed as a.u./minmax. […] The Ki values were obtained from the decrease of a.u./minmax in the presence of the inhibitor, according to the equation a.u./mimmax’ = a.u./mimmax/{1 + ([I]/Ki)}, where a.u./mimmax’ represents the Vmax measured in the presence of the concentration [I] of the inhibitor. The Ki values were obtained from at least three independent experiments and reported as mean ± S.E.

SAN cells = test: Apoptosis, subdiploid DNA content by PI flow cytometry, SAN cells; format: cell-based, human
Text: PI incorporation followed by flow cytometric analysis was used to detect the effect of 7 on the number of nuclei with a sub-diploid content, a typical hallmark of apoptosis. A time-dependent increase of apoptosis was evident in both A2058 and SAN cells and in particular, the effect of 7 on cell death program was already evident after 24-h treatment (Figure 7). […] To further investigate on the capacity of 7 to induce apoptosis, the enzymatic activity of caspase-3, the final effector of apoptotic program, was monitored.
[…] After each treatment, cells were harvested with trypsin, centrifuged and the pellet was resuspended in phosphate-buffered saline (PBS). For cell cycle analysis, cells were fixed with 70% (v/v) cold ethanol and stored at −20°C for 1 h. Then, cells were washed with cold PBS, centrifuged and the pellets were resuspended in 200 μL of a non-lysis solution containing 50 μg/mL PI. For the evaluation of apoptosis, cells were not fixed in ethanol and directly resuspended in 200 μL of a hypotonic lysis solution containing 50 μg/mL PI. After incubation at 4°C for 30 min, cells were analyzed with a FACScan flow cytometer (Becton Dickinson) for evaluating the distribution in cell cycle phases or the presence of nuclei with a DNA content lower than the diploid.

pAkt protein levels = test: Western blotting of pAkt (Ser473) in SAN cells; format: cell-based, human; settings: 100 μM, 1 or 2 h
Procedure: The molecular mechanisms that regulate the cytotoxic potential of 7 in melanoma cells were further investigated through the evaluation of the activation state of protein kinase B (pAkt), one of the key proteins involved in the control and regulation of cell survival. To this aim, the protein levels of pAkt have been analyzed after 2- and 4-h incubation of A2058 cells with 7. […] It is known that Akt regulates the process of cell survival by phosphorylating different substrates, directly or indirectly involved in the apoptotic program. One of these targets is p53, a protein with a tumor-suppressor activity that regulates the cell cycle, as well as the expression of several genes involved in the apoptosis. […]
A2058 cells were seeded into 6-well-plates (3 × 10^5 cells/plate) for 24 h at 37°C and then treated at different times with 100 μM compound 7 or 0.5% DMSO. […] The protein concentration was determined by the method of Bradford, using bovine serum albumin (BSA) as standard. […] Membranes were then analysed by an enhanced chemiluminescence reaction, using Super Signal West Pico kit (Pierce) according to manufacturer's instruction; signals were visualized by autoradiography. […]
0.5% DMSO or 100 μM compound 7 for 1 or 2 h, were analyzed by Western blotting using an antibody raised against pAkt (Ser473). […]

## O=C(O)C1CCCCC1c1c2ccc(=O)cc-2oc2cc(O)ccc12 (centres unmarked) [Compound 7, 2-(6-hydroxy-3-oxo-3H-xanthen-9-yl)cyclohexanecarboxylic acid]
CDC25A
  Ki: 650 ± 40 nM
SAN cells; 100 μM 7 + 100 μM Z-VAD-FMK, 48 h
  level of apoptosis caused by 7 in the presence of Z-VAD-FMK: significantly decreased
SAN cells; 100 μM, 24-72 h
  apoptosis (nuclei with sub-diploid content): increase of apoptosis was significant even at 24-h treatment
SAN cells; NAC pre-treatment, 100 μM 7, 48 h
  apoptosis after NAC pre-treatment: in a great part reverted
pAkt protein levels
  Akt activation (pAkt): early reduction of Akt activation
